Data as given in PubChem BioAssay (NCI).
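In this assay, cells in 96-well plates receive the compound at five concentrations for 48 hours. Endpoints are linearly interpolated between the surrounding concentrations. GI50 is the concentration that inhibits growth by half. TGI: concentration producing complete growth inhibition.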

What was measured:
Assay in all cases: NCI anticancer screen, dose series, 48 h
ACHN renal = test system: ACHN renal
CCRF-CEM leukemia = test system: CCRF-CEM leukemia
HL-60(TB) leukemia = test system: HL-60(TB) leukemia
HOP-92 NSCLC = test system: HOP-92 NSCLC
IGROV1 ovarian = test system: IGROV1 ovarian
MDA-N = test system: MDA-N
SR leukemia = test system: SR leukemia
U251 CNS = test system: U251 CNS
UACC-257 melanoma = test system: UACC-257 melanoma

Structure (SMILES)	TGI (ACHN renal) [µM]	TGI (CCRF-CEM leukemia) [µM]	TGI (HL-60(TB) leukemia) [µM]	TGI (HOP-92 NSCLC) [µM]	TGI (IGROV1 ovarian) [µM]	TGI (MDA-N) [µM]	TGI (SR leukemia) [µM]	TGI (U251 CNS) [µM]	TGI (UACC-257 melanoma) [µM]	GI50 (ACHN renal) [µM]	GI50 (CCRF-CEM leukemia) [µM]	GI50 (HL-60(TB) leukemia) [µM]	GI50 (IGROV1 ovarian) [µM]	GI50 (SR leukemia) [µM]	GI50 (U251 CNS) [µM]	GI50 (UACC-257 melanoma) [µM]
Nc1ccc(Cc2ccc(N)c(C(=O)O)c2)cc1C(=O)O	> 100	> 100	> 100	> 100	> 100	> 100	> 100	> 100	> 100							
CC12OC(C(=O)C13CCC3)C1C(=O)c3c(O)ccc(O)c3C(=O)C12 (configuration not stated)	2.01	> 100	2.39		11.4		2.23	> 22.8	7.81	0.715	0.38	0.569	3.3	0.29	2.47	1.53
CC(NC(=O)c1ccc(OP(=O)(OCc2ccc([N+](=O)[O-])o2)N(C)CCCCCl)cc1)c1ccc(OCC2CCCCC2)c(C(N)=O)c1 (configuration not stated)	> 35.4	0.842	12.3	4.75	8.34	24	4.43	> 32.3	> 39.8							
COc1cc(/C=C2\CC3C4CC[C@H]5C[C@@H](O)CC[C@]5(C)C4CC[C@]3(C)\C2=N\O)cc(OC)c1OC (some centres not stated)	39.8	> 100	55.8	> 100	> 100	41.9		30.9	56.7							
COc1cc(S(=O)(=O)Nc2ccc(-c3csc(/N=C\c4cccc(Oc5ccccc5)c4)n3)cc2)ccc1Cl	71.8	> 100	57.6	58.6	64.2		81.9									
O=C(NN1CCCCC1)c1cc2cc(CCl)ccc2oc1=O	> 100	67.5	37.7	22.9	42.7	33.4	67.8	31.6	59.1							
Nc1csc(-c2scc3c2OCCO3)c1N	> 100		50.8	71.8	54.8	38.8	> 100	29.3	54.2							
C/C=C/C(O)P(=O)(OC)OC (configuration not stated)	1.25	> 100	0.591	0.27	1.01	0.671	> 100	0.872	0.792							
Cc1cc(=O)[nH]c(S(=O)(=O)NC(=O)Nc2cccc(Cl)c2)n1	> 100	> 100	> 31.2	> 100	> 100	> 100	> 100	> 100	> 100							
COc1cc2cc[n+](C)c(Cc3ccc(Oc4cc(Cc5c6cc(OC)c(OC)cc6cc[n+]5C)ccc4OC)cc3)c2cc1OC	> 100	> 100	> 100	> 100	> 100	> 100	> 100	> 100	> 100							
CN(CCCNC(=O)c1nn(-c2ccccc2)c2c1Cc1ccccc1-2)CCCNC(=O)c1nn(-c2ccccc2)c2c1Cc1ccccc1-2	3.12	2.42	2.5	3.26	3.07	2.66	1.42	2.82	3.28							
Cc1c2ccccc2cc2cccc[n+]12	> 100	> 100	> 100		> 100	> 100	> 100		43.3							
c1ccc(C[N+]23C(CC[C@H]2c2ccccc2)CC[C@H]3c2ccccc2)cc1 (some centres not stated)	> 100	> 100	57.4	52.3	> 100	98.9	> 100	> 100	90.3							
COc1ccc2c3c([nH]c2c1)[C@H](C=C(C)C)N1C(=O)[C@@H]2CCCN2C(=O)[C@@H]1C3	> 100	> 100	> 100	> 100	> 100		> 100	> 100	> 100							
CCCCSCCC(N)P(=O)(O)O (configuration not stated)	> 100	> 100	> 100	> 100	> 100	> 100	> 100	> 100	> 100							
C[C@]12O[C@@]3(C)O[C@@]3(C)[C@]3(C)O[C@]3(C)[C@@]1(C)O2	> 100			> 100		> 100	> 100	> 100	> 100							
Fc1c(F)c(F)c(CSc2nc3ccccc3[nH]2)c(F)c1F	> 100	> 100	> 100	> 100	> 100	> 100	> 100	> 100	> 100							
CC(CCCCNC(=O)OC(C)(C)C)NC(=O)NC(C)CCCCNC(=O)OC(C)(C)C (configuration not stated)	> 100	> 100	> 100	> 100	> 100	> 100	> 100	> 100	> 100							
CCCC(=O)Nc1cc(/C=C/C(=O)N2CC(CCl)c3c2cc(OC(C)=O)c2[nH]cc(C)c32)n(C)c1 (configuration not stated)		0.000161	0.00101	0.000146	> 0.25		> 0.25	0.105								
